Test results reported in PubChem BioAssay (NCI).
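Cells were grown in 96-well plates and exposed to each compound for 48 hours at five concentrations; endpoints were interpolated linearly between bracketing concentrations, or set to the highest concentration if not reached. At the GI50, growth is halved. TGI: total growth inhibition.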

How the values were obtained:
Experiment in all cases: NCI-60 cell line screen, 48 h
RPMI-8226 leukemia = system: RPMI-8226 leukemia
SNB-75 CNS = system: SNB-75 CNS
UACC-62 melanoma = system: UACC-62 melanoma
M14 melanoma = system: M14 melanoma
T-47D breast = system: T-47D breast
NCI/ADR-RES ovarian = system: NCI/ADR-RES ovarian
DU-145 prostate = system: DU-145 prostate
PC-3 prostate = system: PC-3 prostate
K-562 leukemia = system: K-562 leukemia
U251 CNS = system: U251 CNS
SW-620 colon = system: SW-620 colon
NCI-H226 lung = system: NCI-H226 lung
BT-549 breast = system: BT-549 breast
HOP-62 NSCLC = system: HOP-62 NSCLC
ACHN renal = system: ACHN renal
OVCAR-5 ovarian = system: OVCAR-5 ovarian
SR leukemia = system: SR leukemia
UACC-257 melanoma = system: UACC-257 melanoma
HCT-116 colon = system: HCT-116 colon
MALME-3M melanoma = system: MALME-3M melanoma
NCI-H23 lung = system: NCI-H23 lung
MCF7 breast = system: MCF7 breast
CAKI-1 renal = system: CAKI-1 renal
SNB-19 CNS = system: SNB-19 CNS
LOX IMVI melanoma = system: LOX IMVI melanoma
HOP-92 NSCLC = system: HOP-92 NSCLC
HS 578T breast = system: HS 578T breast
UO-31 renal = system: UO-31 renal
SK-OV-3 ovarian = system: SK-OV-3 ovarian
RXF 393 renal = system: RXF 393 renal
HT29 colon = system: HT29 colon
NCI-H460 lung = system: NCI-H460 lung
SF-539 CNS = system: SF-539 CNS
SK-MEL-28 melanoma = system: SK-MEL-28 melanoma
NCI-H522 lung = system: NCI-H522 lung
IGROV1 ovarian = system: IGROV1 ovarian
A498 renal = system: A498 renal
SK-MEL-5 melanoma = system: SK-MEL-5 melanoma
OVCAR-8 ovarian = system: OVCAR-8 ovarian
A549 NSCLC = system: A549 NSCLC
786-0 renal = system: 786-0 renal
MDA-MB-435 = system: MDA-MB-435
SK-MEL-2 melanoma = system: SK-MEL-2 melanoma
SN12C renal = system: SN12C renal
OVCAR-3 ovarian = system: OVCAR-3 ovarian
KM12 colon = system: KM12 colon
OVCAR-4 ovarian = system: OVCAR-4 ovarian
MDA-MB-231 breast = system: MDA-MB-231 breast
HCC-2998 colon = system: HCC-2998 colon
SF-295 CNS = system: SF-295 CNS
HCT-15 colon = system: HCT-15 colon
MOLT-4 leukemia = system: MOLT-4 leukemia
SF-268 CNS = system: SF-268 CNS
CCRF-CEM leukemia = system: CCRF-CEM leukemia
TK-10 renal = system: TK-10 renal
COLO 205 colon = system: COLO 205 colon

SMILES: COc1cccc(NC(=O)c2sc3nc4c(cc3c2N)CN(Cc2ccccc2)CC4)c1
- GI50 (RPMI-8226 leukemia): 38.9 µM
- TGI (RPMI-8226 leukemia): > 100 µM
- GI50 (SNB-75 CNS): 1.73 µM
- TGI (SNB-75 CNS): 4.71 µM
- GI50 (UACC-62 melanoma): 1.92 µM
- TGI (UACC-62 melanoma): 29.8 µM
- GI50 (M14 melanoma): 12.7 µM
- TGI (M14 melanoma): 86.8 µM
- GI50 (T-47D breast): 4.62 µM
- TGI (T-47D breast): 47.3 µM
- GI50 (NCI/ADR-RES ovarian): 2.4 µM
- TGI (NCI/ADR-RES ovarian): 33.3 µM
- GI50 (DU-145 prostate): 5.22 µM
- TGI (DU-145 prostate): 22.2 µM
- GI50 (PC-3 prostate): 11.6 µM
- TGI (PC-3 prostate): 91.1 µM
- GI50 (K-562 leukemia): 0.53 µM
- TGI (K-562 leukemia): > 100 µM
- GI50 (U251 CNS): 2.74 µM
- TGI (U251 CNS): 19.2 µM
- GI50 (SW-620 colon): 1.85 µM
- TGI (SW-620 colon): 72.2 µM
- GI50 (NCI-H226 lung): 6.03 µM
- TGI (NCI-H226 lung): 38.3 µM
- GI50 (BT-549 breast): 2.83 µM
- TGI (BT-549 breast): 26.2 µM
- GI50 (HOP-62 NSCLC): 1.83 µM
- TGI (HOP-62 NSCLC): 6.47 µM
- GI50 (ACHN renal): 3.46 µM
- TGI (ACHN renal): 64.5 µM
- GI50 (OVCAR-5 ovarian): 36.9 µM
- TGI (OVCAR-5 ovarian): > 100 µM
- GI50 (SR leukemia): 0.453 µM
- TGI (SR leukemia): 47.7 µM
- GI50 (UACC-257 melanoma): 6.52 µM
- TGI (UACC-257 melanoma): > 100 µM
- GI50 (HCT-116 colon): 1.74 µM
- TGI (HCT-116 colon): > 100 µM
- GI50 (MALME-3M melanoma): 1.43 µM
- TGI (MALME-3M melanoma): 16.6 µM
- GI50 (NCI-H23 lung): 7.18 µM
- TGI (NCI-H23 lung): 49.2 µM
- GI50 (MCF7 breast): 0.62 µM
- TGI (MCF7 breast): > 100 µM
- GI50 (CAKI-1 renal): 11.7 µM
- TGI (CAKI-1 renal): > 100 µM
- GI50 (SNB-19 CNS): 4.75 µM
- TGI (SNB-19 CNS): > 100 µM
- GI50 (LOX IMVI melanoma): 4.09 µM
- TGI (LOX IMVI melanoma): 43.5 µM
- GI50 (HOP-92 NSCLC): 2.21 µM
- TGI (HOP-92 NSCLC): 24.1 µM
- GI50 (HS 578T breast): 2.14 µM
- TGI (HS 578T breast): 23 µM
- GI50 (UO-31 renal): 3.27 µM
- TGI (UO-31 renal): 32.3 µM
- GI50 (SK-OV-3 ovarian): 2.78 µM
- TGI (SK-OV-3 ovarian): 14 µM
- GI50 (RXF 393 renal): 2.71 µM
- TGI (RXF 393 renal): 12.9 µM
- GI50 (HT29 colon): 3.75 µM
- TGI (HT29 colon): 15.2 µM
- GI50 (NCI-H460 lung): 4.18 µM
- TGI (NCI-H460 lung): 30.9 µM
- GI50 (SF-539 CNS): 1.99 µM
- TGI (SF-539 CNS): 6.56 µM
- GI50 (SK-MEL-28 melanoma): 2.8 µM
- TGI (SK-MEL-28 melanoma): 29.7 µM
- GI50 (NCI-H522 lung): 15.1 µM
- TGI (NCI-H522 lung): > 100 µM
- GI50 (IGROV1 ovarian): 18.5 µM
- TGI (IGROV1 ovarian): > 100 µM
- GI50 (A498 renal): 3.82 µM
- TGI (A498 renal): 24.4 µM
- GI50 (SK-MEL-5 melanoma): 2.15 µM
- TGI (SK-MEL-5 melanoma): 31.9 µM
- GI50 (OVCAR-8 ovarian): 4.45 µM
- TGI (OVCAR-8 ovarian): 85.2 µM
- GI50 (A549 NSCLC): 3.79 µM
- TGI (A549 NSCLC): 53.8 µM
- GI50 (786-0 renal): 3.61 µM
- TGI (786-0 renal): 20.8 µM
- GI50 (MDA-MB-435): 0.296 µM
- TGI (MDA-MB-435): 11 µM
- GI50 (SK-MEL-2 melanoma): 10.3 µM
- TGI (SK-MEL-2 melanoma): 44.5 µM
- GI50 (SN12C renal): 11.2 µM
- TGI (SN12C renal): > 100 µM
- GI50 (OVCAR-3 ovarian): 7.53 µM
- TGI (OVCAR-3 ovarian): 26.9 µM
- GI50 (KM12 colon): 11.8 µM
- TGI (KM12 colon): 40.3 µM
- GI50 (OVCAR-4 ovarian): 2.68 µM
- TGI (OVCAR-4 ovarian): 19.7 µM
- GI50 (MDA-MB-231 breast): 11.4 µM
- TGI (MDA-MB-231 breast): 75.3 µM
- GI50 (HCC-2998 colon): 9.13 µM
- TGI (HCC-2998 colon): > 100 µM
- GI50 (SF-295 CNS): 3.05 µM
- TGI (SF-295 CNS): 19.4 µM
- GI50 (HCT-15 colon): 0.93 µM
- TGI (HCT-15 colon): > 100 µM
- GI50 (MOLT-4 leukemia): 21.9 µM
- TGI (MOLT-4 leukemia): > 100 µM
- GI50 (SF-268 CNS): 3.66 µM
- TGI (SF-268 CNS): 20.7 µM
- GI50 (CCRF-CEM leukemia): 29.5 µM
- TGI (CCRF-CEM leukemia): > 100 µM
- GI50 (TK-10 renal): 4.82 µM
- TGI (TK-10 renal): 21.6 µM
- GI50 (COLO 205 colon): 7.55 µM
- TGI (COLO 205 colon): 54.5 µM
